What is called IC50 is the concentration that inhibits the measured activity by half. A higher IC50 goes with weaker potency in that assay.

The test deals with T1, GST-ALK5 (Homo sapiens, UniProt P36897).
T1 sequence (P36897 34-503): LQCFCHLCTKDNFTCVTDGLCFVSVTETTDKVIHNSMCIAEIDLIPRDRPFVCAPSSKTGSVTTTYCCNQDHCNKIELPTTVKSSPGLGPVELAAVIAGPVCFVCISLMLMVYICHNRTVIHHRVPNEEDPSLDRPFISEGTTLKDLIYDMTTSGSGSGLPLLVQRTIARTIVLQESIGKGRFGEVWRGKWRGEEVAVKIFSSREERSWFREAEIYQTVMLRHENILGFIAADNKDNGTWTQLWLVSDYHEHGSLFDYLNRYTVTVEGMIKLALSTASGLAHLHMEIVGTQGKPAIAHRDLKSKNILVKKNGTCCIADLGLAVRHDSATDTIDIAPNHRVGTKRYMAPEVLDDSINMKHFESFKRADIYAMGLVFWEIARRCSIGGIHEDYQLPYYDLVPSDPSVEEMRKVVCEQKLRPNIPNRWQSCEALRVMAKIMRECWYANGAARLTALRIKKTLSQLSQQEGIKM
The test is described as follows: In-vitro (enzyme) flashplate kinase assay, inhibition of TGF-beta receptor I kinase. The format is biochemical. The settings on record: 384-well flashplate, GST-ALK5, GST-SMAD2 substrate, 3 mM ATP, 30° C., 45 min. As for the experimental part: In-Vitro (Enzyme) Assay for Determination of the Efficacy of Inhibitors of the Inhibition of TGF-Beta-Mediated Effects
The kinase assay was carried out as 384-well flashplate assay. 31.2 nM of GST-ALK5, 439 nM of GST-SMAD2 and 3 mM of ATP (with 0.3 μCi of ^33P-ATP/well) were incubated in a total volume of 35 μl (20 mM of HEPES, 10 mM of MgCl2, 5 mM of MnCl2, 1 mM of DTT, 0.1% of BSA, pH 7.4) without or with test substance (5-10 concentrations) at 30° C. for 45 min. The reaction was stopped using 25 μl of 200 mM EDTA solution, filtered with suction at room temperature after 30 min, and the wells were washed with 3 times 100 μl of 0.9% NaCl solution. Radioactivity was measured in the TopCount. The IC50 values were calculated using RS1 (Table 1). Above and below, all temperatures were indicated in ° C.
For `COc1cc(-c2cnc3sc(NCc4cccs4)nn23)cc(OC)c1OC` [No 165, Thiophen-2-ylmethyl-[5-(3,4,5-trimethoxy-phenyl)-imidazo[2,1-b][1,3,4]thiadiazol-2-yl]-amine], half-maximal inhibition (IC50) was put at 0.33 µM. That is a sub-micromolar value.
With `COc1cc(-c2cnc3sc(NCCOc4ccccc4)nn23)cc(OC)c1OC` [No 277, (2-Phenoxy-ethyl)-[5-(3,4,5-trimethoxy-phenyl)-imidazo[2,1-b][1,3,4]thiadiazol-2-yl]-amine] the figure was 0.78 µM; with `COc1cc(-c2cnc3sc(NCc4cccnc4)nn23)cc(OC)c1OC` [No 416, Pyridin-3-ylmethyl-[5-(3,4,5-trimethoxy-phenyl)-imidazo[2,1-b][1,3,4]thiadiazol-2-yl]-amine], 0.67 µM.
With `COc1cc(-c2cnc3sc(NCCc4ccncc4)nn23)cc(OC)c1OC` [No 442, (2-Pyridin-4-yl-ethyl)-[5-(3,4,5-trimethoxy-phenyl)-imidazo[2,1-b][1,3,4]thiadiazol-2-yl]-amine] the figure was 0.48 µM; with `CC(=O)c1cccc(-c2cnc3sc(NCCc4ccc(S(N)(=O)=O)cc4)nn23)c1` [No 490, 4-{2-[5-(3-Acetyl-phenyl)-imidazo[2,1-b][1,3,4]thiadiazol-2-ylamino]-ethyl}-benzenesulfonamide], 0.36 µM.
With `CC(=O)c1cccc(-c2cnc3sc(NCCc4ccncc4)nn23)c1` [No 360] the figure was 0.7 µM.
The compound `CC(=O)c1cccc(-c2cnc3sc(NCCN4CCOCC4)nn23)c1` [No 158, 1-{3-[2-(2-Morpholin-4-yl-ethylamino)-imidazo[2,1-b][1,3,4]thiadiazol-5-yl]-phenyl}-ethanone] registered an IC50 of 0.78 µM.
Compound `COc1cc(-c2cnc3sc(NCCN4CCOCC4)nn23)cc(OC)c1OC` [No 495, (2-Morpholin-4-yl-ethyl)-[5-(3,4,5-trimethoxy-phenyl)-imidazo[2,1-b][1,3,4]thiadiazol-2-yl]-amine] came in with an IC50 of 0.49 µM.
To `COc1cc(-c2cnc3sc(NCCCO)nn23)cc(OC)c1OC` [No 456, 3-[5-(3,4,5-Trimethoxy-phenyl)-imidazo[2,1-b][1,3,4]thiadiazol-2 - ylamino]-propan-1-ol] belongs 0.74 µM.
To `COc1cc(-c2cnc3sc(NCCc4ccccn4)nn23)cc(OC)c1OC` [No 20, (2-Pyridin-2-yl-ethyl)-[5-(3,4,5-trimethoxy-phenyl)-imidazo[2,1-b][1,3,4]thiadiazol-2-yl]-amine] belongs 0.27 µM; to `COc1cc(-c2cnc3sc(NCC4CCOCC4)nn23)cc(OC)c1OC` [No 274, (Tetrahydro-pyran-4-ylmethyl)-[5-(3,4,5-trimethoxy-phenyl)-imidazo[2,1-b][1,3,4]thiadiazol-2-yl]-amine], 0.81 µM.
`COc1cc(-c2cnc3sc(NCC(C)C)nn23)cc(OC)c1OC` [No 266, Isobutyl-[5-(3,4,5-trimethoxy-phenyl)-imidazo[2,1-b][1,3,4]thiadiazol-2-yl]-amine] yielded an IC50 of 0.82 µM.
`COc1cc(-c2cnc3sc(NCCc4ccc(S(N)(=O)=O)cc4)nn23)cc(OC)c1OC` [No 464, 4-{2-[5-(3,4,5-Trimethoxy-phenyl)-imidazo[2,1-b][1,3,4]thiadiazol-2-ylamino]-ethyl}-benzenesulfonamide] returned a 50% inhibitory concentration (IC50) of 0.16 µM.
For `COc1cc(-c2cnc3sc(NCc4cccs4)nn23)ccc1O` [No 307, 2-Methoxy-4-{2-[(thiophen-2-ylmethyl)-amino]-imidazo[2,1-b][1,3,4]thiadiazol-5-yl}-phenol], it took 0.74 µM to reach half-maximal inhibition (IC50).
With `Cc1cc(-c2cnc3sc(NCc4ccco4)nn23)cc(C)c1O` [No 38, 4-{2-[(Furan-2-ylmethyl)-amino]-imidazo[2,1-b][1,3,4]thiadiazol-5-yl}-2,6-dimethyl-phenol] the figure was 0.24 µM; with `COc1cc(-c2cnc3sc(NC4CCC(O)CC4)nn23)cc(OC)c1OC` (stereo not shown) [No 363, 4-[5-(3,4,5-Trimethoxy-phenyl)-imidazo[2,1-b][1,3,4]thiadiazol-2-ylamino]-cyclohexanol], 0.57 µM.

The record behind these values is patent publication US8389554B2, “Imidazothiadiazole derivatives” (Merck Patent Gesellschaft mit Beschränkter Haftung, priority 2008, dated 2013).
